# Measurements as given in paper PMC5656653, “Evaluation of Ga-DOTA-(D-Asp)n as bone imaging agents: D-aspartic acid peptides as carriers to bone” (Scientific Reports, 2017).
# Where a SMILES comes first, the peptide text is derived from it. [ ]: non-standard residue; d: D form. The star is where a group is joined. DOTA = O=C(O)CN1CCN(CC(=O)O)CCN(CC(=O)*)CCN(CC(=O)O)CC1
# Test: Biodistribution experiments in normal mice after i.v. injection
# Format: in vivo
# Conditions: mouse, in vivo, iv; for tissue uptake dose at 10 min / tissue uptake dose at 1 h / tissue uptake dose at 3 h: male, ddY, total radioactivity, Biodistribution of radioactivity
# Method: Experiments with animals were conducted in strict accordance with the Guidelines for the Care and Use of Laboratory Animals of Kanazawa University. The animal experimental protocols used were approved by the Committee on Animal Experimentation of Kanazawa University (Permit Number: AP-132633). Biodistribution experiments were performed after intravenous administration of each diluted tracer solution (37–740 kBq/100 μL) to 6-week-old male ddY mice (27–32 g, Japan SLC, Inc., Hamamatsu, Japan). Four or five mice at each time point after the administration of each compound were sacrificed by decapitation at 10, 60, and 180 min post-injection. Tissues of interest were taken and weighed. Complete left femurs were isolated as representative bone samples, radioactivity was determined using gamma counters (AccuFLEX γ ARC-8001 in the case of ^18F, Hitachi, Ltd.), and background counts and physical decay were corrected during counting.
smiles,measurement,setting,value
"O=C(O)C[C@@H](NC(=O)[C@@H](CC(=O)O)NC(=O)[C@@H](CC(=O)O)NC(=O)[C@@H](CC(=O)O)NC(=O)[C@@H](CC(=O)O)NC(=O)[C@@H](CC(=O)O)NC(=O)[C@@H](CC(=O)O)NC(=O)[C@@H](CC(=O)O)NC(=O)CN1CCN(CC(=O)O)CCN(CC(=O)O)CCN(CC(=O)O)CC1)C(=O)O [^67Ga-DOTA-(D-Asp)8, metal not drawn] ({DOTA}-[dD][dD][dD][dD][dD][dD][dD][dD]-OH)",tissue uptake dose at 10 min,Blood,1.94 %ID
same,tissue uptake dose at 1 h,Blood,0.33 %ID
same,tissue uptake dose at 3 h,Blood,0.13 %ID
same,tissue uptake dose at 10 min,Bone (Femur),9.86 %ID
same,tissue uptake dose at 1 h,Bone (Femur),11.6 %ID
same,tissue uptake dose at 3 h,Bone (Femur),12.5 %ID
same,tissue uptake dose at 10 min,Brain,0.05 %ID
same,tissue uptake dose at 1 h,Brain,0.01 %ID
same,tissue uptake dose at 3 h,Brain,0.01 %ID
same,tissue uptake dose at 10 min,Heart,0.63 %ID
same,tissue uptake dose at 1 h,Heart,0.14 %ID
same,tissue uptake dose at 3 h,Heart,0.05 %ID
same,tissue uptake dose at 10 min,Kidney,12.8 %ID
same,tissue uptake dose at 1 h,Kidney,2.49 %ID
same,tissue uptake dose at 3 h,Kidney,1.23 %ID
same,tissue uptake dose at 10 min,Large-intestine,0.26 %ID
same,tissue uptake dose at 1 h,Large-intestine,0.05 %ID
same,tissue uptake dose at 3 h,Large-intestine,0.08 %ID
same,tissue uptake dose at 10 min,Liver,0.46 %ID
same,tissue uptake dose at 1 h,Liver,0.14 %ID
same,tissue uptake dose at 3 h,Liver,0.11 %ID
same,tissue uptake dose at 10 min,Lung,1.34 %ID
same,tissue uptake dose at 1 h,Lung,0.26 %ID
same,tissue uptake dose at 3 h,Lung,0.1 %ID
same,tissue uptake dose at 10 min,Muscle,0.57 %ID
same,tissue uptake dose at 1 h,Muscle,0.15 %ID
same,tissue uptake dose at 3 h,Muscle,0.14 %ID
same,tissue uptake dose at 10 min,Pancreas,0.57 %ID
same,tissue uptake dose at 1 h,Pancreas,0.11 %ID
same,tissue uptake dose at 3 h,Pancreas,0.08 %ID
same,tissue uptake dose at 10 min,Small-intestine,0.39 %ID
same,tissue uptake dose at 1 h,Small-intestine,0.13 %ID
same,tissue uptake dose at 3 h,Small-intestine,0.1 %ID
same,tissue uptake dose at 10 min,Spleen,0.42 %ID
same,tissue uptake dose at 1 h,Spleen,0.16 %ID
same,tissue uptake dose at 3 h,Spleen,0.09 %ID
same,tissue uptake dose at 10 min,Stomach,0.34 %ID
same,tissue uptake dose at 1 h,Stomach,0.04 %ID
same,tissue uptake dose at 3 h,Stomach,0.1 %ID
same,Accumulation of radioactivity in bone (in words),,high accumulation and retention of radioactivity in bone
